Assay results as given in BindingDB's records for doi:10.1016/j.bmcl.2005.10.026 (Pfizer, 2005).

Key:
[1] = Inhibition of Eotaxin mediated by human eosinophil chemotaxis
[2] = Inhibition of C5a mediated human eosinophil chemotaxis
[3] = Inhibition of PAF mediated human eosinophil chemotaxis

## C[C@@H](NC(=O)c1cccnc1Oc1ccc(F)cc1)c1cccs1 [(R)-2-(4-fluorophenoxy)-N-(1-(thiophen-2-yl)ethyl)nicotinamide]
[1]
  IC50: 3 nM
[2]
  IC50: 1 nM
Inhibition of PDE4D
  IC50: < 1 nM
[3]
  IC50: 1 nM
